Source: patent US20250302833A1, “PHARMACEUTICAL COMPOSITION FOR TREATING OR PREVENTING CYSTIC DISEASE” (CHUGAI SEIYAKU KABUSHIKI KAISHA, priority 2022, published 2025)

Legend:
Type in all cases: cell-based
human NaPi-IIb = target: T1, human NaPi-IIb (Homo sapiens, UniProt O95436); test: 33PO4 uptake inhibition in CHO cells expressing human NaPi-IIb; details: CHO cells transiently expressing human NaPi-IIb, pH 6.5
T1 construct: expressed in transfected cells; host or cells: CHO cells, transient transfection with Fugene HD
T1 sequence (O95436 1-690): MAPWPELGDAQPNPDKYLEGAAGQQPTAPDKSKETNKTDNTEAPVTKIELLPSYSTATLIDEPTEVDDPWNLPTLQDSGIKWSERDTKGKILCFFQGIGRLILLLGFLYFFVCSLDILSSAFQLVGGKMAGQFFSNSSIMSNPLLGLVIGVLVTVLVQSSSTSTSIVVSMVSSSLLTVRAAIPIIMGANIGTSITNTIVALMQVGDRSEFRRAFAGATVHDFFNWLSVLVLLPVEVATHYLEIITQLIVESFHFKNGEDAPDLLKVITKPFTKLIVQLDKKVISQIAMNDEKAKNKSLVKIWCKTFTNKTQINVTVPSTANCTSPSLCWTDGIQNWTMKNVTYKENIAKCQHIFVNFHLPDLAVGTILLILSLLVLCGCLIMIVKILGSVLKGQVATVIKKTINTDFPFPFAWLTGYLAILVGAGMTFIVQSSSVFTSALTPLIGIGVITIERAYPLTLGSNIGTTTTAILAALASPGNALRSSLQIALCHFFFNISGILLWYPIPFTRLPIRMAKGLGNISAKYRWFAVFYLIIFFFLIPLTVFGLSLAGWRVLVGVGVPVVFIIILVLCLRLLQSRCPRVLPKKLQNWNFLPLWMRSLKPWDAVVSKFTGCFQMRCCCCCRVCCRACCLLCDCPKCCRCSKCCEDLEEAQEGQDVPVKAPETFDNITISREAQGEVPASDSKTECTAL
Experimental: For transient expression, human NaPi-IIb expression plasmids, human PiT1 expression plasmids, human PiT2 expression plasmids, and Fugene HD Transfection (Promega Corporation) were added to CHO cells using a 96-well plate, and the plate was incubated in a C02 incubator for 16 hours. The medium was replaced with buffer A (145 mM choline chloride, 3 mM KCl, 1 mM CaCl2), 0.5 mM MgCl2, 5 mM glucose, 5 mM MES, (pH 6.5)), and then replaced with buffer B (145 mM NaCl, 3 mM KCl, 1 mM CaCl2, 0.5 mM MgCl2, 5 mM glucose, 5 mM MES (pH 6.5)) to which a test compound was added at the final concentration of 0.01, 0.03, 0.1, 0.3, 1, 3, 10, or 30 μM, buffer A to which DMSO was added, or buffer B to which DMSO was added. After a certain time, a 1/20 amount of buffer A containing ^33PO4 (PerkinElmer Japan G. K.) was added and reacted at room temperature. After washing with ice-cooled buffer A, a liquid scintillator (MicroScint™-20, item number 6013621, PerkinElmer Japan G.K.) was added, and the ^33PO4 uptake amount was measured with the top count (Top Count NXT, PerkinElmer Japan G.K.). The inhibition rate was determined by the following formula. Here, a certain time was set to 10 minutes. The phrase “a 1/20 amount of buffer A containing ^33PO4 (PerkinElmer Japan G.K.) was added” refers to “buffer A containing ^33PO4 (PerkinElmer Japan G.K.) was added in an amount of 1/20 of the amount of solution filling the medium”.
The 50% ^33PO4-uptake inhibition concentrations (ICs) (UM) in a cell expressing human NaPi-Ilb, human PiT1, and human PiT2 were calculated from a straight line through two points sandwiching 50% inhibition rate. It should be noted that compounds 1 and 2 were not measured for baman PiT1 and human PiT2, which was indicated as “-” in Table 1.

human PiT1 = target: T2, human PiT1 (Homo sapiens, UniProt Q8WUM9); test: 33PO4 uptake inhibition in CHO cells expressing human PiT1; details: CHO cells transiently expressing human PiT1, pH 6.5
T2 construct: expressed in transfected cells; host or cells: CHO cells, transient transfection with Fugene HD
T2 sequence (Q8WUM9 1-679): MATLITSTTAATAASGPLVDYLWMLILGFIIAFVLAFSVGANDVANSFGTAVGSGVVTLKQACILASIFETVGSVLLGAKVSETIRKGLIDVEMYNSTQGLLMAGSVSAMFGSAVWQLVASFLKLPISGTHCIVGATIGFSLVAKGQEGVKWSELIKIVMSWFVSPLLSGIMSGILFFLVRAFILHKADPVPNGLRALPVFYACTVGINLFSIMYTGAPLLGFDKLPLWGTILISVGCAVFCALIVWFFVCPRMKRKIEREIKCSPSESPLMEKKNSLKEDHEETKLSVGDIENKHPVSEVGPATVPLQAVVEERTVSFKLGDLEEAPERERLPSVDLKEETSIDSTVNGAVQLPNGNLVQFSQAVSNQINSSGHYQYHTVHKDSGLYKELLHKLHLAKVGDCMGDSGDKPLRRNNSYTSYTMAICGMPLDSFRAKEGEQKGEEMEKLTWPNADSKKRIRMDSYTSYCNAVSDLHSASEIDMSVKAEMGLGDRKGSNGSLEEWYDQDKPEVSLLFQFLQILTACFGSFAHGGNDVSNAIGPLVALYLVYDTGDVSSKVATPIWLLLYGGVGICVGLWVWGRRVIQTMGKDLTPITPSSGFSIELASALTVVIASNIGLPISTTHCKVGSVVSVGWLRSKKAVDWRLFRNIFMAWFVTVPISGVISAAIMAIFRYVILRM
Experimental: (§1) For transient expression, human NaPi-IIb expression plasmids, human PiT1 expression plasmids, human PiT2 expression plasmids, and Fugene HD Transfection (Promega Corporation) were added to CHO cells using a 96-well plate, and the plate was incubated in a C02 incubator for 16 hours. The medium was replaced with buffer A (145 mM choline chloride, 3 mM KCl, 1 mM CaCl2), 0.5 mM MgCl2, 5 mM glucose, 5 mM MES, (pH 6.5)), and then replaced with buffer B (145 mM NaCl, 3 mM KCl, 1 mM CaCl2, 0.5 mM MgCl2, 5 mM glucose, 5 mM MES (pH 6.5)) to which a test compound was added at the final concentration of 0.01, 0.03, 0.1, 0.3, 1, 3, 10, or 30 μM, buffer A to which DMSO was added, or buffer B to which DMSO was added. After a certain time, a 1/20 amount of buffer A containing ^33PO4 (PerkinElmer Japan G. K.) was added and reacted at room temperature. After washing with ice-cooled buffer A, a liquid scintillator (MicroScint™-20, item number 6013621, PerkinElmer Japan G.K.) was added, and the ^33PO4 uptake amount was measured with the top count (Top Count NXT, PerkinElmer Japan G.K.). The inhibition rate was determined by the following formula. Here, a certain time was set to 10 minutes. […]

human PiT2 = target: T3, human PiT2 (Homo sapiens, UniProt Q08357); test: 33PO4 uptake inhibition in CHO cells expressing human PiT2; details: CHO cells transiently expressing human PiT2, pH 6.5
T3 construct: expressed in transfected cells; host or cells: CHO cells, transient transfection with Fugene HD
T3 sequence (Q08357 1-652): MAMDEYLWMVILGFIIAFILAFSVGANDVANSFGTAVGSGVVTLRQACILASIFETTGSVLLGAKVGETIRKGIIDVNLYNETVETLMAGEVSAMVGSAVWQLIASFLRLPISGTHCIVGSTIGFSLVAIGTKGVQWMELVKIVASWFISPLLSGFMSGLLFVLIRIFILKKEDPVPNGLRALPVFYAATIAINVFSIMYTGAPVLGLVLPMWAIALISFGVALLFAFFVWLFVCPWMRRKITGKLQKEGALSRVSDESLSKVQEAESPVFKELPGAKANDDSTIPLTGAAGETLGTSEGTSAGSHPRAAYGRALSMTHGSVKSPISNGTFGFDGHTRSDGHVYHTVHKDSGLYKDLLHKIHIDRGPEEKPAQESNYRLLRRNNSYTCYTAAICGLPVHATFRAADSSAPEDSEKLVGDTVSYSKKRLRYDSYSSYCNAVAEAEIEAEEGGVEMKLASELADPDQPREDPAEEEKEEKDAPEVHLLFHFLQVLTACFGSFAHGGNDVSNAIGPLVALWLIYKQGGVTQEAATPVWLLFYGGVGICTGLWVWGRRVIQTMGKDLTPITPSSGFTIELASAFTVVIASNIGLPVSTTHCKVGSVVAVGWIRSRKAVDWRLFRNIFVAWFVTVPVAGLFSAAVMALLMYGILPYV
Experimental: as §1

[1] = tested on: primary cells from kidney tissues of human ADPKD patients; test: Inhibition of three-dimensional cyst formation using primary cells from kidney tissue of human ADPKD patient; details: 168 h, test compound 30 μM, forskolin + ITS stimulation, 7 days 3D culture, average N=3, read-out: Inhibition rate (%) of cyst formation
Experimental: Primary cells were isolated from kidney tissues of human ADPKD patients. Under two-dimensions, the isolated cells were cultured for 2 days using DMEM/F-12 (Thermo Fisher Scientific, Inc.) supplemented with 10% FBS. Subsequently, three-dimensional culture was performed for 7 days using 3D Ready Atelocollagen (KOKEN CO., LTD.). During three-dimensional culture, 50 µM forskolin (Sigma-Aldrich Co. LLC) and ITS liquid media supplements (Sigma-Aldrich Co. LLC) were added as stimulating agents to some of the wells to form cysts, and a test compound was added at the final concentration of 30 μM. The test compound was also added to other wells at the final concentration of 30 μM. After 7 days of three-dimensional culture, it was fixed with 4% paraformaldehyde (Thermo Fisher Scientific, Inc.), and nucleic acid staining and cell membrane staining were performed with Hoechst 33342 (Thermo Fisher Scientific, Inc.) and CellLight Plasma Membrane-RFP, BacMam 2.0 (Thermo Fisher Scientific, Inc.). Three-dimensional imaging and volume analysis were performed using Operetta CLS and image analysis software Harmony (PerkinElmer Japan G.K.). The inhibition rate was determined by the following formula.

SMILES	IC50 (human NaPi-IIb)	IC50 (human PiT1)	IC50 (human PiT2)	inhibition at 30 µM [1]
O=C(Nc1ccc(Cl)cc1C(=O)c1cnn(-c2ccc(Cl)c(C(F)(F)F)c2)c1)c1cccc(CN2CCC(N3CCCCC3)CC2)c1 [Compound 3, N-[4-Chloro-2-[1-[4-chloro-3-(trifluoromethyl)phenyl]pyra-zole-4-carbonyl]phenyl]-3-[(4-piperidin-1-ylpiperidin-1-yl)methyl]benzamide]	3.8 µM	> 30 µM	> 30 µM	100%
C[C@]12CCCN1N(Cc1cccc(Cl)c1F)C(=O)C(C(=O)Nc1cc(F)c(Br)c(F)c1)=C2O [Compound 2, (4aR)-N-(4-Bromo-3,5-difluorophenyl)-1-[(3-chloro-2-fluorophenyl)methyl]-4-hydroxy-4a-methyl-2-oxo-6,7-dihydro-5H-pyrrolo[1,2-b]pyridazine-3-carboxamide]	2.9 µM	–	–	100%
O=c1[nH]nc(Sc2ccc(C(F)(F)F)cn2)n1-c1cc(Cl)c(Cl)cc1C(F)(F)F [Compound 1, 4-[4,5-Dichloro-2-(trifluoromethyl)phenyl]-3-[5-(trifluoromethyl)pyridin-2-yl]sulfanyl-1H-1,2,4-triazol-5-one]	7.9 µM	–	–	98.2%
